From ChEMBL document CHEMBL3804813, “Discovery and optimization of new benzofuran derivatives against p53-independent malignant cancer cells through inhibition of HIF-1 pathway” (Bioorg Med Chem Lett, 2016)
Active and inactive are the calls of the source. The rule behind the calls is not given here.

Assays:
[1] = biological target: Hypoxia-inducible factor 1-alpha (Homo sapiens) (UniProt Q16665); assay: Inhibition of HIF-1 (unknown origin) expressed in human MCF7 cells co-transfected with hypoxia reporter plasmid p(HRE)3-Luc at 10 uM measured under hypoxia condition after 24 hrs by dual-luciferase reporter assay; type: cell-based
MCF7 [2] = assay: Cytotoxicity against human MCF7 cells co-transfected with hypoxia reporter plasmid p(HRE)3-Luc at 20 uM; type: cell-based; conditions: mcf7, 20 µM
MCF7 [3] = assay: Antiproliferative activity against human MCF7 cells assessed as growth inhibition after 72 hrs by MTT assay; type: functional, cell-based; conditions: MCF7, 72 h
[4] = Antiproliferative activity against human p53-null HCT116 cells assessed as growth inhibition after 72 hrs by MTT assay; type: functional, cell-based; conditions: HCT-116, 72 h
[5] = Antiproliferative activity against human MDA-MB-435S cells assessed as growth inhibition after 72 hrs by MTT assay; type: functional, cell-based
[6] = Antiproliferative activity against human HCT116 cells expressing wild type p53 assessed as growth inhibition after 72 hrs by MTT assay; type: functional, cell-based; conditions: HCT-116, 72 h
[7] = Cell cycle arrest in human p53-null HCT116 -/- cells assessed as accumulation at G1-phase at 20 uM after 12 hrs by propidium iodide staining based flow cytometry (reference value: 27.78%); type: functional; conditions: HCT-116
HCT-116 [8] = assay: Induction of apoptosis in human p53-null HCT116 -/- cells assessed as necrotic cells at 5 uM after 48 hrs by Annexin V-FITC/propidium iodide staining based flow cytometry (reference value: 4.67%); type: functional
[9] = Cell cycle arrest in human p53-null HCT116 -/- cells assessed as accumulation at G2-phase at 5 uM after 12 hrs by propidium iodide staining based flow cytometry (reference value: 2.35%); type: functional; conditions: HCT-116
[10] = Cell cycle arrest in human p53-null HCT116 -/- cells assessed as accumulation at S-phase at 5 uM after 12 hrs by propidium iodide staining based flow cytometry (reference value: 69.57%); type: functional; conditions: HCT-116
[11] = biological target: Hypoxia-inducible factor 1-alpha (Homo sapiens) (UniProt Q16665); assay: Inhibition of HIF-1 (unknown origin) expressed in human MCF7 cells co-transfected with hypoxia reporter plasmid p(HRE)3-Luc at 20 uM measured under hypoxia condition after 24 hrs by dual-luciferase reporter assay; type: cell-based
[12] = Cell cycle arrest in human p53-null HCT116 -/- cells assessed as accumulation at G1-phase after 12 hrs by propidium iodide staining based flow cytometry; type: functional; conditions: HCT-116
[13] = Decrease in procaspase-9 expression level in human p53-null HCT116 -/- cells at 1 to 20 uM after 24 hrs by western blot analysis; type: functional, cell-based; conditions: HCT-116
HCT-116 [14] = assay: Induction of apoptosis in human p53-null HCT116 -/- cells assessed as viable cells at 10 uM after 48 hrs by Annexin V-FITC/propidium iodide staining based flow cytometry (reference value: 85.26%); type: functional; conditions: HCT-116, 48 h, read-out: Activity
HCT-116 [15] = assay: Induction of apoptosis in human p53-null HCT116 -/- cells assessed as late apoptotic cells at 5 uM after 48 hrs by Annexin V-FITC/propidium iodide staining based flow cytometry (reference value: 3.11%); type: functional
HCT-116 [16] = assay: Induction of apoptosis in human p53-null HCT116 -/- cells assessed as viable cells at 5 uM after 48 hrs by Annexin V-FITC/propidium iodide staining based flow cytometry (reference value: 85.26%); type: functional; conditions: HCT-116, 48 h, read-out: Activity
[17] = Cell cycle arrest in human p53-null HCT116 -/- cells assessed as accumulation at G2-phase at 10 uM after 12 hrs by propidium iodide staining based flow cytometry (reference value: 2.35%); type: functional; conditions: HCT-116
HCT-116 [18] = assay: Induction of apoptosis in human p53-null HCT116 -/- cells assessed as viable cells at 20 uM after 48 hrs by Annexin V-FITC/propidium iodide staining based flow cytometry (reference value: 85.26%); type: functional; conditions: HCT-116, 48 h, read-out: Activity
HCT-116 [19] = assay: Induction of apoptosis in human p53-null HCT116 -/- cells assessed as early apoptotic cells after 48 hrs by Annexin V-FITC/propidium iodide staining based flow cytometry; type: functional, cell-based
[20] = biological target: Hypoxia-inducible factor 1-alpha (Homo sapiens) (UniProt Q16665); assay: Inhibition of HIF1 in human MCF7 cells assessed as reduction in VEGF mRNA expression after 24 hrs under hypoxia condition by real-time PCR analysis; type: cell-based
[21] = Cell cycle arrest in human p53-null HCT116 -/- cells assessed as accumulation at S-phase at 20 uM after 12 hrs by propidium iodide staining based flow cytometry (reference value: 69.57%); type: functional; conditions: HCT-116
HCT-116 [22] = assay: Induction of apoptosis in human p53-null HCT116 -/- cells assessed as early apoptotic cells at 20 uM after 48 hrs by Annexin V-FITC/propidium iodide staining based flow cytometry (reference value: 6.96%); type: functional
[23] = Cell cycle arrest in human p53-null HCT116 -/- cells assessed as accumulation at G2-phase at 20 uM after 12 hrs by propidium iodide staining based flow cytometry (reference value: 2.35%); type: functional; conditions: HCT-116
HCT-116 [24] = assay: Induction of apoptosis in human p53-null HCT116 -/- cells assessed as early apoptotic cells at 10 uM after 48 hrs by Annexin V-FITC/propidium iodide staining based flow cytometry (reference value: 6.96%); type: functional
[25] = Cell cycle arrest in human p53-null HCT116 -/- cells assessed as accumulation at G1-phase at 5 uM after 12 hrs by propidium iodide staining based flow cytometry (reference value: 27.78%); type: functional; conditions: HCT-116
[26] = Cell cycle arrest in human p53-null HCT116 -/- cells assessed as accumulation at G1-phase at 10 uM after 12 hrs by propidium iodide staining based flow cytometry (reference value: 27.78%); type: functional; conditions: HCT-116
HCT-116 [27] = assay: Induction of apoptosis in human p53-null HCT116 -/- cells assessed as late apoptotic cells at 20 uM after 48 hrs by Annexin V-FITC/propidium iodide staining based flow cytometry ( Rvb = 3.11%); type: functional
HCT-116 [28] = assay: Induction of apoptosis in human p53-null HCT116 -/- cells assessed as necrotic cells at 20 uM after 48 hrs by Annexin V-FITC/propidium iodide staining based flow cytometry (reference value: 4.67%); type: functional
HCT-116 [29] = assay: Induction of apoptosis in human p53-null HCT116 -/- cells assessed as morphological change at 5 to 20 uM after 48 hrs by Annexin V-FITC/propidium iodide staining based flow cytometry; type: functional, cell-based
[30] = Decrease in procaspase-3 expression level in human p53-null HCT116 -/- cells at 1 to 20 uM after 24 hrs by western blot analysis; type: functional, cell-based; conditions: HCT-116
HCT-116 [31] = assay: Induction of apoptosis in human p53-null HCT116 -/- cells assessed as early apoptotic cells at 5 uM after 48 hrs by Annexin V-FITC/propidium iodide staining based flow cytometry (reference value: 6.96%); type: functional
HCT-116 [32] = assay: Induction of apoptosis in human p53-null HCT116 -/- cells assessed as late apoptotic cells after 48 hrs by Annexin V-FITC/propidium iodide staining based flow cytometry; type: functional, cell-based
HCT-116 [33] = assay: Induction of apoptosis in human p53-null HCT116 -/- cells assessed as necrotic cells at 10 uM after 48 hrs by Annexin V-FITC/propidium iodide staining based flow cytometry (reference value: 4.67%); type: functional
[34] = Cell cycle arrest in human p53-null HCT116 -/- cells assessed as accumulation at S-phase at 10 uM after 12 hrs by propidium iodide staining based flow cytometry (reference value: 69.57%); type: functional; conditions: HCT-116
HCT-116 [35] = assay: Induction of apoptosis in human p53-null HCT116 -/- cells assessed as late apoptotic cells at 10 uM after 48 hrs by Annexin V-FITC/propidium iodide staining based flow cytometry (reference value: 3.11%); type: functional

Hypoxia-inducible factor 1-alpha (Homo sapiens), sequence (Q16665 whole entry, looked up): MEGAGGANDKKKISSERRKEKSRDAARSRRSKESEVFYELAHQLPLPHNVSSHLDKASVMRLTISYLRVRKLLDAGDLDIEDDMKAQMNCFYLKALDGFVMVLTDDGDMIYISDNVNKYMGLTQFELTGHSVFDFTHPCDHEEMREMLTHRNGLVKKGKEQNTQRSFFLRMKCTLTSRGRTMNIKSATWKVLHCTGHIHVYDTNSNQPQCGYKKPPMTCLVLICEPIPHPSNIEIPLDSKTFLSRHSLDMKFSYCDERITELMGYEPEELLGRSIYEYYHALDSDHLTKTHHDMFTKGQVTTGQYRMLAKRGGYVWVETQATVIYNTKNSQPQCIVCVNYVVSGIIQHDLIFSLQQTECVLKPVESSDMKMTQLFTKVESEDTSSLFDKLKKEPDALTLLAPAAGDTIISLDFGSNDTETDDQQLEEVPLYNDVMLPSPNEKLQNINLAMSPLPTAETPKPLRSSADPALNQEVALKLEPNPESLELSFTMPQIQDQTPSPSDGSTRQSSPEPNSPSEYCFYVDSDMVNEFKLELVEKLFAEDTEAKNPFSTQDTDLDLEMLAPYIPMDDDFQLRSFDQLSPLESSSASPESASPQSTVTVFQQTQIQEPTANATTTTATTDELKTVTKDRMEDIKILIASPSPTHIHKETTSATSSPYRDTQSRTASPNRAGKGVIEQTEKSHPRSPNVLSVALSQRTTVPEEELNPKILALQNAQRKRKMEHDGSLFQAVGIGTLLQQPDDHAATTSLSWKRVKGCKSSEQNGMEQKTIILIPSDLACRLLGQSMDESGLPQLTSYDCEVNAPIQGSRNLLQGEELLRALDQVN

## CNCCNC(=O)c1oc2ccc(N(Cc3ccc(Cl)cc3)S(=O)(=O)c3ccc(Cl)cc3)cc2c1C
[1]
  inhibition: 22.2%
MCF7 [2]
  Activity: Toxic
MCF7 [3]
  IC50: 5.67 µM
[4]
  IC50: 4.03 µM
[5]
  IC50: 1.63 µM
[6]
  IC50: 1810 nM

## CNCCNC(=O)c1oc2ccc(N(Cc3ccccc3)S(=O)(=O)c3ccc(Cl)cc3)cc2c1C
[7]
  Activity: 59.7%
HCT-116 [8]
  Activity: 0.5%
[9]
  Activity: 3.6%
[10]
  Activity: 60.2%
[11]
  inhibition: 47.3%
[12]
  Activity: Dose-dependent effect
[13]
  inhibition: Active
HCT-116 [14]
  viability at 10 µM: 28.1%
HCT-116 [15]
  Activity: 6.74%
HCT-116 [16]
  viability at 5 µM: 77.3%
[17]
  Activity: 4.26%
HCT-116 [18]
  viability at 20 µM: 3.07%
HCT-116 [19]
  Activity: Dose-dependent effect
[20]
  inhibition: Dose-dependent effect
[21]
  Activity: 32.2%
MCF7 [3]
  IC50: 4.56 µM
HCT-116 [22]
  Activity: 62.28%
[23]
  Activity: 8.1%
HCT-116 [24]
  Activity: 55.86%
[25]
  Activity: 36.2%
[26]
  Activity: 52.8%
HCT-116 [27]
  Activity: 34.63%
HCT-116 [28]
  Activity: 0.02%
HCT-116 [29]
  Activity: Active
[4]
  IC50: 2.91 µM
[5]
  IC50: 4.71 µM
[6]
  IC50: 3000 nM
[30]
  inhibition: Active
HCT-116 [31]
  Activity: 15.42%
HCT-116 [32]
  Activity: Dose-dependent effect
HCT-116 [33]
  Activity: 1.05%
[34]
  Activity: 42.9%
HCT-116 [35]
  Activity: 14.99%
